Data taken from article PMC13242511, “Disrupting Notch signalling by a small molecule inhibiting dihydroorotate dehydrogenase activity” (Scientific Reports, 2026).
Values joined by “and” are separate entries in the source; they are usually repeats but may differ in a detail not shown here. Identical values can stand only once. Like-named read-outs stand apart in the source and are kept apart here.

What was measured:
[1] = molecular target: γ-secretase complex (Homo sapiens, UniProt P49768); test: APP-C99 counter assay (GSI reporter assay); assay type: cell-based; parameters: AUC APP: scale not given here; conditions: for AUC APP: area under the 14-point dose-response curve, replicates averaged
Method: To this end, we used a previously established reporter gene-based GSI assay (APP-C99) (Fig. 3A), which measures γ-secretase activity through cleavage of amyloid precursor protein (APP), another protein processed by the γ-secretase complex[24]
Plasmids for APP and luciferase are described in[24] and the renilla plasmid described above generated for this project was used to normalize firefly values. 24 h post transfection cells were seeded on compound plates and cells were cultivated for 24 h before luciferase signals were read, as described.
Two-fold concentrations of compounds were diluted in 10 µl cell culture medium and brought to one-fold by seeding 10 µl containing 4000 cells of the respective cell type on each well of a 384-well plate, as described above. Analogous to the previous assays, all plates contained one DMSO and DAPT control column with the Notch reporter cell line (#A1-11) and a DMSO only and Notch inhibitor control plate was read before the measuring the screening plates. In addition, DAPT and DMSO were spotted in a dose response fashion, and a minimum of four replicates were read. Dose-responses of compounds were recorded in triplicates for each concentration reading out the dual luciferase reporters, as described above. Dose response assays were read together in one session. To measure compound effects, the different assays dose–response curves were fitted using the log(inhibitor) vs. response – Variable slope (model: Y = Bottom + (Top–Bottom)/(1 + 10^((LogIC50-X)*HillSlope)) equation.
A DMSO plate was read before measuring luciferase activity of compound spotted plates. APP firefly luciferase reporter assays were read with a signal integration time of 0.1 s, instead of 0.5 s used for the Notch reporter to reduce signal overlap between wells. […] The area-under-the-curve (AUC) was calculated on dose–response curves using Graphpad Prism.

[2] = test system: Notch signalling; test: Notch reporter assay (12xCSL firefly luciferase / renilla luciferase, HEK293T Notch1ΔE reporter cell line clone #A1-11); assay type: cell-based; parameters: AUC Notch: scale not given here; conditions: for Bottom (Emax): Emax indicated independent from assay constraints, in % (unit assumed); for AUC Notch: area under the 14-point dose-response curve
Source text: To identify novel Notch inhibitors in an unbiased manner, we generated a novel Notch reporter construct, which records the level of Notch signalling immediately downstream of receptor activation rather than further downstream in the signalling cascade, for example at the level of Hes and Hey proteins (Fig. 1B). […] The reporter construct carries piggy-bac sequences at both ends of the promoter-reporter cassette as well as cSH4 insulator elements to reduce transcriptional noise[21] and was transfected into HEK293T cells. To achieve a robust level of Notch receptor activity in the HEK293T reporter cell line and to confine the search for inhibitors to compounds affecting the receptor function and eliminating the need for ligand activation, a truncated ligand-independent version of the Notch1 receptor, mimicking an S2-cleaved Notch1 receptor (Notch1ΔE) and spontaneously activated by S3-cleavage[22] (Fig. 1C) was introduced into the cell line carrying the reporter construct (Fig. 1D). In addition, an HSV-TK-renilla luciferase plasmid was introduced into the cell line as an internal control for normalisation of the reporter expression (Fig. 1D).
A de novo Notch reporter construct, composed of six dimeric CSL binding sites linked to a basic b-globin promoter and followed by a firefly luciferase gene and a PEST degradation domain was synthesised (GeneArt). The construct was stably introduced into HEK293T cells, and zeocin (0.1 mg/ml) or Puromycin (0.05 mg/ml (ThermoFisher, cat #R25001, #A1113803) were used as selection markers. A clonal cell line (clone #A1) with robust renilla expression and enhanced firefly luciferase expression upon transient transfection of Notch1 ICD or Notch1ΔE constructs was selected, and a UB6 promoter-Notch1DE construct was stably introduced into this cell line using Blasticidin (0.1 mg/ml; ThermoFisher, cat #A1113903) as a selection marker. Stable cell lines were generated by serial dilution and only clonal colonies were selected for further evaluation. To measure luciferase reporter activity, cells were washed in cold PBS, detached, and collected in pre-warmed cell culture medium and centrifugated for five min at 200xg. The cell pellet was resuspended in medium, cells were counted, and 4,000 cells were seeded in each well of a white 384 well plate (Corning #3670) in 20 µl medium containing either DMSO or the GSI DAPT (N-[N-(3,5-Difluorophenacetyl)-L-alanyl]-S-phenylglycine t-butyl ester, Sigma-Aldrich, cat #565784-M) and incubated for 24 h. The efficacy of the reporter gene system was determined by monitoring the level of luciferase activation in the absence or presence of different amounts of DAPT in several cell clones. Luciferase activity was assessed using the dual-GLO luciferase detection kit from Promega (cat # E2920), following the manufacturer’s instructions. A minimum of two technical replicates were measured per clone using a SpectraMaxi3 plate reader (Molecular Devices). Reporter activity of different clones and in response to DAPT was assessed by normalising firefly (Notch activity) to renilla luciferase signals. Normalised signals of individual clones cultivated in DMSO were then compared to corresponding signals generated with DAPT-treated cells. The cell clone with the strongest signal to control ratio (DMSO to DAPT) was then selected for further exploration (clone #A1-11).
37,966 compounds were spotted by the compound center at SciLifeLab (https://www.scilifelab.se/) on a total of 120 plates (Greiner #781080) at a fixed concentration of 10 µM and the screening process spanned five consecutive sessions. The layout of each plate contained one column for DMSO and one for DAPT controls to determine the quality and reliability of the data. DAPT controls were spotted at 10 µM and DMSO was spotted in an equimolar volume. In addition, plates spotted with only DMSO were utilized to investigate the impact of plate effects before and after each session. […]

[3] = 14p APP assay DR, bottom constrained to Emax of positive control LY-411575
[4] = Homo sapiens, HEK-293T, 14p Notch assay DR, bottom constrained to Emax of positive control DAPT, read-out: approximated IC50
[5] = Homo sapiens, HEK-293T, 14p Notch assay DR, log10 value, bottom constrained to Emax of positive control DAPT, read-out: approximated LogIC50 (converted)
[6] = 9p dose response, AUCs averaged when replicates available
[7] = 14p dose response, AUCs averaged when replicates available
[8] = 14p dose response, log10 of averaged IC50
[9] = overview in comparison to compound C, Supplemental Fig. 9

Structure (SMILES) | Hill-slope [1, 3] | AUC APP [1] | IC50 [2, 4] | IC50 [2, 5] | Bottom (Emax) ([2]; 14p Notch assay DR) | AUC Notch ([2]; replicates averaged) | further results
CCOC(=O)c1c(NC(=O)NCc2cccnc2)sc2c1CCC2 [CBK307585] | -0.6 | 444.5 |  |  | 71.6 | 338.0 | IC50 ([2]; Homo sapiens, HEK-293T, 14-point dose-response, Fig. 4, read-out: approximated IC50, Notch reporter assay): 6.6 µM
O=C(Nc1nnc(-c2ccc3c(c2)OCCO3)o1)c1ccccc1F [CBK287405] |  | 502.9 | 3 µM | 3.16 µM | 15.0 | 288.0 | curve fit information [1, 3]: IC50 indeterminate; remaining activity at 10 µM ([1]; 24 h, 10µM, APP-C99 counter assay, read-out: 3p-DR in % of DMSO counter): 137%; remaining activity at 25 µM ([1]; 24 h, 25µM, APP-C99 counter assay, read-out: 3p-DR in % of DMSO counter): 153%; remaining activity at […] ([1]; 24 h, 1,25µM, APP-C99 counter assay, read-out: 3p-DR in % of DMSO counter): 124%; activity at 10 µM ([2]; Homo sapiens, HEK-293T, 10 µM, primary screen, 24 h, unit from Fig. 2 legend, read-out: Primary screen at 10 µM (Notch reporter signal)): 36.4%; activity at 10 µM ([2]; Homo sapiens, HEK-293T, 10 µM, three-dose confirmation screen, unit from Fig. 2 legend, read-out: Hit confirmation at 10 µM (Notch reporter signal)): 44%; activity at 10 µM ([2]; Homo sapiens, HEK-293T, 10µM, 3-point DR confirmation screen, Notch reporter assay, read-out: inhibitor ratio in % of DMSO in 3 point DR): 44%; activity at 10 µM ([2]; Homo sapiens, HEK-293T, 10 µM, sheet conf vs counter 10 µM, same values as 3-point DR confirmation screen, read-out: Confirmation screen): 44%; activity at 25 µM ([2]; Homo sapiens, HEK-293T, 25µM, 3-point DR confirmation screen, Notch reporter assay, read-out: inhibitor ratio in % of DMSO in 3 point DR): 37.6%; activity at 25 µM ([2]; Homo sapiens, HEK-293T, 25 µM, Notch reporter 3-point dose-confirmation assay, sheet "conf vs counter 25 µM", read-out: Confirmation screen): 37.6%; activity ([2]; Homo sapiens, HEK-293T, 1,25µM, 3-point DR confirmation screen, Notch reporter assay, read-out: inhibitor ratio in % of DMSO in 3 point DR): 85.1%
C[C@H](NC(=O)Cc1cc(F)cc(F)c1)C(=O)N[C@@H]1C(=O)N(C)c2ccccc2-c2ccccc21 [YO-01027, reference compound] |  | 461.6 |  |  | 43.4 and 46.0 | 383.0 | Hill-Slope 9p APP counter assay averaged ([1]; 9p dose response): -1.7; AUC 9p APP-counter assay [1, 6]: 2.30E+02; IC50 ([1]; 9p dose response, averaged, read-out: 9p APP counter assay averaged IC50s): 0.017 µM; IC50 ([1]; 9p dose response, read-out: approximated IC50s 9p APP counter assay): 0.017 µM; IC50 ([1]; 14-point, unit inferred, some fits outside of tested concentration range, read-out: approximated IC50s 14p APP-counter assay): 0.021 µM; Bottom (Emax) ([1]; 14p APP assay DR, Emax indicated independent from assay constraints): 40.6 and 48.3; IC50 ([1]; 14p APP assay DR, Notch inhibitor controls, no bottom constraint named, read-out: approximated IC50): 0.016 µM and 0.027 µM; approximated LogIC50 [M] ([1]; 14p APP assay DR, log10 value, Notch inhibitor controls, no bottom constraint named): -7.8 M and -7.6 M; AUC. 14p APP-counter assay [1, 7]: 4.62E+02; 14p APP counter assay averaged IC50s (log) [1, 8]: -7.7; APP assay [1, 9]: higher potency; AUC 9p Notch reporter assay [2, 6]: 1.99E+02; IC50 ([2]; 14-point, unit inferred, replicates averaged, read-out: approxiated IC50s 14p Notch reporter assay): 0.0017 µM; approximated LogIC50 [M] ([2]; 14p Notch assay DR, log10 value, Notch inhibitor controls, no bottom constraint named): -8.7 M; IC50 ([2]; 14p dose response, single replicates, read-out: approximated IC50s 14p Notch reporter assay): 0.002 µM and 0.0015 µM; AUC 14p Notch reporter assay [2, 7]: 3.83E+02; 14p Notch reporter assay averaged IC50s (log) [2, 8]: -8.8; Notch assay [2, 9]: higher potency
O=C1NC(c2cccnc2)Nc2sc3c(c21)CCCC3 (stereo not drawn) [CBK072377] | 0.0091 | 497.7 |  |  | 89.1 | 364.0 | approximated IC50, Notch reporter assay ([2]; 14-point dose-response, Fig. 4): Indeterminate

Second part, led by results:

Hill-slope [1, 3] | AUC APP [1] | IC50 [2, 4] | IC50 [2, 5] | Structure (SMILES) | Bottom (Emax) ([2]; 14p Notch assay DR) | AUC Notch ([2]; replicates averaged) | further results
0.0659 | 523.0 | 27 µM | 25.1 µM | COc1ccccc1-c1cn2ccnc2c(Nc2cc(OC)c(OC)c(OC)c2)n1 [CBK066148] | 58.8 | 336.0 | 
0.0221 | 492.9 |  |  | COc1cc(Nc2nc(-c3ccc(Cl)cc3)cn3ccnc23)cc(OC)c1OC [CBK066238] | 82.4 | 336.0 | 
0.0551 | 517.0 | > 40 µM | > 40 µM | COc1cccc(Nc2nc(-c3cccnc3)cn3ccnc23)c1 [CBK103068] | 69.8 | 335.0 | 
